Where no end group is shown, it is not given here.

Holding throughout (assay type): in vivo
One data set has as its system Salmonella-infected mice. Kind of data set: Salmonella-mediated cecal fibrosis in mice. The note with it: Salmonella-infected mice with lentiviral elafin overexpression. The method, then:
Eight-week-old male and female 129Sv/J mice (#000691, Jackson Laboratories) were administered 20 mg streptomycin via oral gavage. Twenty-four hours later, the mice were orally infected with Salmonella typhimurium SL1344 strain 1×10^8 colony-forming units by oral gavage to induce cecal fibrosis.
Origene or miR205-5p-OFF lentivrus (mm35328) or miR205-5p-OE lentivirus (mm15214) from Applied Biological Materials on day 14. Some infected mice received oral antibiotics mixture in drinking water ad libitum from day 14 to day 21 to suppress intestinal microbiota. […]
H&E and Masson Trichrome (MT) staining were performed as described previously. Microphotographs were recorded at multiple locations and scored by two investigators blindly. Intestinal injuries were scored (0-12). The severity of intestinal fibrosis was assessed by MT staining and scored (0-3). […]
Total RNA was isolated by an RNeasy kit (#74104, Qiagen) and reverse transcribed into cDNA by a high-capacity cDNA reverse transcription kit (#4368813, ThermoFisher). […] Relative mRNA/miRNA quantification was performed by comparing test groups and control groups after normalization with endogenous control genes. The fold changes are expressed as 2^ΔΔCt. […]
(§1) Overall disease activity (ODA) was calculated by % change of histology and fibrosis scores and colonic mRNA expression of fibrosis- and inflammation-related genes. […]

In data set [1] the test system is HFD-treated male mice. Nature of the data set: Oral and subcutaneous administration of modified elafin to HFD-treated male mice. The conditions noted are these: 14 days. The method, then:
FIG. 36. Subcutaneous and oral administration of modified elafin inhibited hyperphagia and hyperglycemia in HFD-treated male mice. (A) Elafin (1 mg/kg) was injected into RD-treated male mice subcutaneously. Tail-vein blood samples were collected for elafin ELISA. This mouse experiment was intended for the determination of basic pharmacokinetics of elafin, but not the determination of physiology of elafin. (B) HFD-treated mice were treated with either oral gavage of Elafin-Eudragit formulation (10 mg/kg) daily or subcutaneous injection of PEG-elafin (3.25 mg/kg) every 48 h for 14 days. Serum elafin levels. (C) Serum leptin levels. (D) Serum IFNγ and IL-1β levels. (E) Daily food consumption. (F) Change in fat mass. (G) Change in body weight over 14 days. (H) Fasting blood glucose levels. Each group consists of 8 mice.
Oral and subcutaneous administration of modified elafin to mice. Eight-week-old male c57BL/6J (JAX #000664) mice were fed with HFD for 8 weeks to induce obesity and hyperglycemia, followed by administration of Elafin-Eudragit formulation (10 mg/kg) via oral gavage daily or subcutaneous injection of polyethylene glycol conjugated (PEGylated) elafin (3.25 mg/kg) every 48 h to mice for 14 days. Oral Elafin-Eudragit formulation was made by Dr. Xingguo Cheng at the Southwest Research Institute (SWRI), Texas. Elafin was coated with Eudragit FS3OD polymer. […] Elafin-Eudragit was packaged into microparticles using an SWRI-patented spinning disk atomization technology. This packaging prevented leakage of elafin in acidic, aqueous solution. The oral elafin-Eudragit formulation was dissolved in mildly acidified (pH 5) water containing 0.5% hydroxypropyl methylcellulose (HPMC). PEGylated elafin was made by conjugation to methoxyl-PEG12 (New England Peptide Company). Control groups received either oral Eudragit-HPMC solution or subcutaneous PEG injection.

Data set [2] deals with HFD-treated male mice. Kind of data set: Leptin sensitivity test in HFD-treated male mice. As for the experimental part:
FIG. 35. Elafin-dependent serum exosome-mediated inhibition of hyperphagia and hyperglycemia was reversed by miR181b-5p and miR219-5p inhibitors. (A) Serum exosome transplantation to HFD-treated mice. The miRNA inhibitors were injected on the same day as exosome injection. (B) Change in fat mass. (C) No significant change in body weight among all groups over 7 days after miRNA inhibitor and exosome injection. (D) Fasting blood glucose levels 7 days after exosome and miRNA inhibitor injection. (E) Daily food consumption per mouse. (F) Serum leptin levels measured on day seven post-injection. (G, H) Leptin, Cd36, and adiponectin mRNA expression in the mesenteric fat and epididymal fat of HFD-treated mice with exosome and miRNA inhibitor injection. (I) Leptin sensitivity test: The RD/HFD-treated mice were injected with leptin for 3 days after elafin-LV injection. (J, K) Daily food consumption and fasting blood glucose levels at 24 h after the last leptin injection. Each group consists of 8 mice.
Leptin sensitivity tests were performed by injecting 1 μg/kg leptin intraperitoneally (#450-31, Peprotech) daily for 3 days. At the endpoint of the experiments, mice were fasted for 6 h and tested for fasting blood glucose and cholesterol levels with a drop of tail vein blood using Freestyle Lite blood glucose meter and test strips (Abbott Diabetes Care) and Accutrend Plus meter and test strips (Roche), respectively. The oral glucose tolerance test (OGTT) was performed by feeding D-glucose (1 g/kg) to fasted mice via oral gavage, and the blood glucose level was measured 2 h after oral glucose feeding. Blood glucose and cholesterol levels are presented as mg/dL. Measurements of fasting blood glucose levels, blood total cholesterol levels, food consumption, and fat/lean mass (EchoMRl) were performed as described in our previous report.
For inhibition of miRNAs, control (Y100199006), miR-181b-5p (YC10201288-FZA), and miR-219-5p (YC10201241-FZA) inhibitors (Qiagen) were dissolved in PBS. […]

In data set [3] the test system is HFD-treated elafin-overexpressing mice. Nature of the data set: Intraperitoneal IL-1β and IFNγ injection to HFD-treated elafin-overexpressing mice. The note with it: for effect on elafin-mediated inhibition of fat mass and fasting blood glucose levels / effect on elafin-mediated inhibition of liver steatosis: mouse, in vivo. From the text: FIG. 33. Circulating immune cells mediated the anti-obesity effects of elafin in HFD-treated male mice. (A) Circulating immune cell mRNA expression in the HFD-treated mice with and without lentiviral elafin overexpression. (B) Splenocyte transplantation to HFD-treated Rag−/− mice. (C) Physiological parameters of HFD-treated Rag−/− recipient mice after splenocyte transplantation. Transplantation of splenocytes from elafin-overexpressing donors caused reduced fat mass, body weight, and food consumption and increased leptin levels in the Rag−/− recipient mice. (D) Mesenteric fat and epididymal fat tissue mRNA expression in HFD- treated mice with and without lentiviral elafin overexpression. (E) Determination of the physiological effects of intraperitoneal IL-1β and IFNγ injection to HFD-treated elafin-expressing mice. IL-1β or IFNγ was injected on the same day as elafin-expressing lentivirus injection. (F) Daily food consumption, (G) serum leptin levels. (H) Change in body weight. (I) Change in fat mass. (J) Fasting blood glucose levels. Each group consists of 8 mice.
Some groups were injected with IL-1β protein 2.5 μg per mouse (#211-11B Peprotech) or IFNγ protein 5 μg per mouse (#315-05 Peprotech) intraperitoneally to increase circulating IL-1β or IFNγ levels.

The next data set relates to TNBS-treated mice. Nature of the data set: TNBS-associated colonic fibrosis in mice. The conditions noted are these: TNBS-treated mice. The method, then: Eight-week-old male and female CD-1 mice (#022, Charles River Laboratories) were injected with 50pL TNBS solution (to induce colonic fibrosis) or 30% ethanol (vehicle) via enema weekly for five weeks. After the last TNBS injection, the mice were held for two additional weeks to develop colonic fibrosis. Some of the mice were injected with 5 μg/mouse of either control (PS100001) or elafin-expressing construct (RC203136) from
Origene via InvivoJetPEI transfection reagent (201-10G, Polyplus) intracolonically on the 9th day after the last TNBS injection or five days before the end of experiment.
Some of the mice received either a single intraperitoneal injection of 10 mg/kg anti-tumor necrosis factor-alpha (anti-TNFα) neutralizing antibody (6E0058, BioXCell) or oral antibiotic mixture in drinking water ad libitum from the 9th day after the last TNBS injection to the endpoint of the experiment. The antibiotics mixture contains kanamycin (0.4 mg/mL), gentamicin (0.035 mg/mL), colistin (850 U/mL), metronidazole (0.215 mg/mL), and vancomycin (0.045 mg/mL), which was routinely used by our laboratory for suppressing intestinal microbiota.
For PAR1/2 activation, some of the mice were injected with DMSO (50pL/mouse), 5 mg/kg PAR1 agonist TRAP-6, or 5 mg/kg PAR2 agonist SLIGKV-NH2 via enema on the 9th, 11th, and 13th days after the last TNBS injection.
For miRNA inhibition, some of the mice were injected with 5 mg/kg either control inhibitor or miR205-5p power inhibitor (Qiagen) […] via enema on the 9th, 11th, and 13th days after the last TNBS injection.
For Zeb1 manipulation, some mice received a single intraperitoneal injection (10^7 infectious units/mouse) of control lentivirus (PS100064V), Zeb1-overexpressing lentivirus (MR223095L2V), or Zeb1-shRNA lentivirus (TL513177V) from Origene, Inc. nine days after the last TNBS injection.
Dr. Xingguo Cheng produced the oral elafin-Eudragit-FS3OD formulation via a material transfer agreement (UCLA MTA2019-00000337) with the Southwest Research Institute (SWRI) in Texas. […] The mice were fed with either control-Eudragit or elafin-Eudragit in mildly acidified (pH 5) water containing 0.5% hydroxypropyl methylcellulose (HPMC) daily via oral gavage during the last five days of the experiment.
H&E and Masson Trichrome (MT) staining were performed as described previously. Microphotographs were recorded at multiple locations and scored by two investigators blindly. Intestinal injuries were scored (0-12). The severity of intestinal fibrosis was assessed by MT staining and scored (0-3). ZEB1 immunohistochemistry was performed using an anti-ZEB1 antibody (HPA027524, Sigma).
Total RNA was isolated by an RNeasy kit (#74104, Qiagen) and reverse transcribed into cDNA by a high-capacity cDNA reverse transcription kit (#4368813, ThermoFisher). PCR reactions were run with Taq Universal SYBR Green Supermix (1725120, Bio-Rad) and TaqMan real-time PCR assays (ThermoFisher) in a Bio-Rad CFX384 system. For the determination of miRNA expression, RNA was converted to cDNA using miRCURY LNA RT kit. PCR reactions were run with miRCURY LNA SYBR Green PCR kit and miRCURY LNA PCR assays (Qiagen). Relative mRNA/miRNA quantification was performed by comparing test groups and control groups after normalization with endogenous control genes. The fold changes are expressed as […]. […]
as §1

`CC[C@H](C)[C@H](NC(=O)[C@H](CC1CCCCC1)NC(=O)c1ccno1)C(=O)NCc1cccc(C(=O)N2CCC(CN)CC2)c1` [GB110, reference compound]: the “effect on elafin-mediated inhibition of cecal fibrosis / collagen deposition and fibrogenic mRNA expression” value with Salmonella-infected mice was “reversed”.

For “PEG-Elafin: elafin conjugated to methoxyl-PEG12, for subcutaneous injection (AQEPVKGPVSTKPGSCPIILIRCAMLNPPNRCLKDTDCPGIKKCCEGSCGMACFVPQ; ends and bridges not checked; also: conjugated to methoxyl-PEG12, site not given here; UniProt P19957 61-117, looked up)”, in the data set on HFD-treated male mice [1], the “circulating IFNγ levels” value was “significantly reduced”, the circulating leptin levels entry was “significantly increased”, the “fasting blood glucose levels” value is reported as “significantly reduced” and the fat mass gain entry was “significantly reduced”. In addition, in the data set on HFD-treated male mice [1], the food consumption result is given as “significantly reduced” and the liver steatosis result is “significantly reduced”. In addition, the “serum elafin levels versus lentiviral elafin overexpression” value in the data set on HFD-treated male mice [1] (Elafin-Eudragit 10 mg/kg oral daily, PEG-elafin 3.25 mg/kg s.c. every 48 h) is “comparable”.

On to “Leptin: leptin (#450-31, Peprotech) injected intraperitoneally”, for which the “food consumption in HFD-treated elafin-overexpressing mice” value in the data set with HFD-treated male mice [2] (leptin 1 μg/kg intraperitoneally daily for 3 days) is given as “further reduced”. Also, in the data set with HFD-treated male mice [2] (leptin daily for 3 days), the “decrease of fasting blood glucose in HFD-treated elafin-overexpressing mice” value is listed as “not affected”.

Consider IL-1β: IL-1β protein (Peprotech), for which, in data set [3], the “effect on elafin-mediated inhibition of fat mass and fasting blood glucose levels” value is listed as “reversed”; the “effect on elafin-mediated inhibition of liver steatosis” value is recorded as “reversed”.

Regarding IFNγ: IFNγ protein (Peprotech), the “effect on elafin-mediated decrease of food consumption and fasting blood glucose levels” value in the data set on HFD-treated male mice [2] (mouse, in vivo) is reported as “reversed”. The “food consumption in elafin-overexpressing mice” value in data set [3] (IL-1β 2.5 μg or IFNγ 5 μg per mouse intraperitoneally) is “moderately increased”. In data set [3], the “effect on elafin-mediated inhibition of fat mass and fasting blood glucose levels” value is “reversed”; the “effect on elafin-mediated inhibition of liver steatosis” value is on record as “reversed”.

As to TRAP-6 [PAR1 agonist], the “colonic injury and fibrosis” value in the data set on TNBS-treated mice is reported as “did not affect”.

These data come from patent publication US20230405078A1, “DETECTION AND TREATMENT OF INTESTINAL FIBROSIS” (THE REGENTS OF THE UNIVERSITY OF CALIFORNIA, priority 2020, published 2023).
